As usually defined, the IC50 is the concentration that inhibits the measured activity by half. Low readings indicate greater potency, high ones weaker potency.

Here are results for 15 molecules from ChEMBL document CHEMBL1146279 (Bioorg Med Chem Lett, 2007).

The assay deals with T1, Tyrosine-protein kinase JAK3 (Homo sapiens, UniProt P52333).
T1 sequence (P52333 whole entry): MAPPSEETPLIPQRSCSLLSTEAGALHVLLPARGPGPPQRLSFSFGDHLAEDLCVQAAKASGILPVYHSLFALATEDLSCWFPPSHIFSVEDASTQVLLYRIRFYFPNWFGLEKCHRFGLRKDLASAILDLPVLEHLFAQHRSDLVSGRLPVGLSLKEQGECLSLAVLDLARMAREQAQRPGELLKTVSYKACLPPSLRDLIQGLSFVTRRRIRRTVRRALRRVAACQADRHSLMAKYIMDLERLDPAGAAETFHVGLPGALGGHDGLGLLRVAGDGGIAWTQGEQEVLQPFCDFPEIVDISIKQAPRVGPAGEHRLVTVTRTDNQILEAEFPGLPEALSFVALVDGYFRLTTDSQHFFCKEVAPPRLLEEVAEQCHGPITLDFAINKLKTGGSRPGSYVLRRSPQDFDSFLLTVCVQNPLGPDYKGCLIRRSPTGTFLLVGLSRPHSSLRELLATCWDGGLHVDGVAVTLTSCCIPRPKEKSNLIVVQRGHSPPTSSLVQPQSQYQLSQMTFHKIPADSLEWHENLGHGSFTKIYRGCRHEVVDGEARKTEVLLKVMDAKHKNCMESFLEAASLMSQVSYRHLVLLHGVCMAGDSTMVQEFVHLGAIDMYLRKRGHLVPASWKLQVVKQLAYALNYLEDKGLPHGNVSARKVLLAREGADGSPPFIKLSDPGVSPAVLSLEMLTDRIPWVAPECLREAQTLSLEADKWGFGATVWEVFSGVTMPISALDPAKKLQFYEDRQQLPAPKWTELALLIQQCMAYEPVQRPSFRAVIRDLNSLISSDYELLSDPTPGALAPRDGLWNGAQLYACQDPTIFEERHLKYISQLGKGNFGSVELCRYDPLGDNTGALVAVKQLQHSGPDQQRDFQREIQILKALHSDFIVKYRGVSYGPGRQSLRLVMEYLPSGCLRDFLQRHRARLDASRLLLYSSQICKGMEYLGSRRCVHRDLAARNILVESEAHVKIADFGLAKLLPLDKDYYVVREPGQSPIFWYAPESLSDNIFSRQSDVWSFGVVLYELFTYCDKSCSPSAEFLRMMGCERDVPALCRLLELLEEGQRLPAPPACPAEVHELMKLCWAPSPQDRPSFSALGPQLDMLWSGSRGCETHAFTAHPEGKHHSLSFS
The assay can be described thus: Inhibition of JAK3 expressed in Sf21 cells.
`O=Cc1ccc2c(c1)c1c3c(c4c5cc(Br)ccc5n5c4c1n2CC(CO)C5)C(=O)NC3` (stereo not given) showed an IC50 of 15 nM.

Consider `O=C1NCc2c1c1c3cc(CO)ccc3n3c1c1c2c2cc(CO)ccc2n1CC(CO)C3` (stereo not given), for which the IC50 came out at 14 nM.

For the molecule `CN(C)CCCNC(=O)/C=C/c1ccc2c(c1)c1c3c(c4c5ccccc5n5c4c1n2CC(CO)C5)CNC3=O` (stereo not given), half-maximal inhibition (IC50) required 237 nM.

`O=C1NCc2c1c1c3ccccc3n3c1c1c2c2ccccc2n1CC(O)C3` (stereo not given) yielded an IC50 of 142 nM.

Regarding `O=C1NCc2c1c1c3ccccc3n3c1c1c2c2ccccc2n1CC(CO)(CO)C3`, the 50% inhibitory concentration (IC50) was found to be 13.5 nM.

Consider `O=C1NCc2c1c1c3ccccc3n3c1c1c2c2ccccc2n1CC(=C(CO)CO)C3`, for which the IC50 stood at 36 nM.

Molecule `O=C1NCc2c1c1c3ccccc3n3c1c1c2c2ccccc2n1CC(O)(CO)C3` (stereo not given) had a half-inhibitory concentration (IC50) of 27 nM.

`CN(C)Cc1ccc2c(c1)c1c3c(c4c5ccccc5n5c4c1n2CC(CO)C5)C(=O)NC3` (stereo not given) yielded an IC50 of 250 nM.

`O=C1NCc2c1c1c3cc(/C=C/c4ccccn4)ccc3n3c1c1c2c2ccccc2n1CC(CO)C3` (stereo not given) had an IC50 of 354 nM.

In turn, `O=C1NCc2c1c1c3cc(/C=C/Cn4ccnc4)ccc3n3c1c1c2c2ccccc2n1CC(CO)C3` (stereo not given) yielded an IC50 of 11 nM.

In turn, `O=C1NCc2c1c1c3cc(/C=C/n4ccnc4)ccc3n3c1c1c2c2ccccc2n1CC(CO)C3` (stereo not given) gave an IC50 of 109 nM.

The molecule `O=C1NCc2c1c1c3cc(CN4CCOCC4)ccc3n3c1c1c2c2cc(CN4CCOCC4)ccc2n1CC(CO)C3` (stereo not given) had an IC50 greater than 5000 nM.

`O=C1NCc2c1c1c3ccccc3n3c1c1c2c2ccccc2n1CC(CO)C3` (stereo not given) returned a half-inhibitory concentration (IC50) of 17.5 nM.

For `CC(C)OCc1ccc2c(c1)c1c3c(c4c5ccccc5n5c4c1n2CC(CO)C5)C(=O)NC3` (stereo not given), it took 80 nM to reach half-maximal inhibition (IC50).

Consider `O=C1NCc2c1c1c3cc(Br)ccc3n3c1c1c2c2ccccc2n1CC(CO)C3` (stereo not given), for which the IC50 was found to be 23.5 nM.
